In ChEMBL document CHEMBL1201862, “PubChem BioAssay data set” (2004):
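Tested at 5 concentrations; 48 h exposure; 96-well plates; endpoints linearly interpolated, else capped at highest concentration. Abbreviation: GI50, concentration required for 50% inhibition of growth.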 The source made the active and inactive calls. Cut-off read from the data, not from the text of the source: active = GI50 up to about 1.1 µM and inactive = higher.

What was measured:
Test in all cases: NCI tumour cell line growth inhibition, 48 h
786-0 = test system: 786-0
CCRF-CEM = test system: CCRF-CEM
EKVX = test system: EKVX
HL-60 = test system: HL-60
HT-29 = test system: HT-29
IGROV-1 = test system: IGROV-1
K562 = test system: K562
Malme-3M = test system: Malme-3M
NCI-H23 = test system: NCI-H23
NCI-H460 = test system: NCI-H460
NCI-H522 = test system: NCI-H522
OVCAR-3 = test system: OVCAR-3
OVCAR-8 = test system: OVCAR-8
RPMI-8226 = test system: RPMI-8226
SF-295 = test system: SF-295
SK-MEL-5 = test system: SK-MEL-5
SNB-75 = test system: SNB-75
U-251 = test system: U-251
UACC-257 = test system: UACC-257
UACC-62 = test system: UACC-62

Measured: GI50

CN(C)Cc1cc(/N=N/c2ccc(Cl)cc2)ccc1OC(=O)c1ccccc1
inactive: 786-0 14.7 µM | CCRF-CEM 15.3 µM | EKVX 12.1 µM | HL-60 13.5 µM | HT-29 14.4 µM | IGROV-1 13.2 µM | K562 14.4 µM | Malme-3M 16.7 µM | NCI-H23 17.8 µM | NCI-H460 15.3 µM | NCI-H522 12.2 µM | OVCAR-3 15.7 µM | OVCAR-8 17 µM | RPMI-8226 15.6 µM | SF-295 14.8 µM | SK-MEL-5 14.9 µM | SNB-75 17 µM | U-251 15 µM | UACC-257 19.2 µM

c1ccc2c(c1)nnn2CNc1ccc(N2CCOCC2)cc1
inactive: 786-0 > 100 µM | CCRF-CEM > 100 µM | EKVX > 100 µM | HL-60 33.3 µM | HT-29 > 100 µM | IGROV-1 > 100 µM | K562 > 100 µM | Malme-3M > 100 µM | NCI-H23 > 100 µM | NCI-H460 > 100 µM | NCI-H522 > 100 µM | OVCAR-3 > 100 µM | OVCAR-8 > 100 µM | RPMI-8226 47.4 µM | SF-295 > 100 µM | SNB-75 > 100 µM | U-251 > 100 µM | UACC-257 > 100 µM | UACC-62 > 100 µM

CCC1=CCN(c2ccc(C)cc2)OC1c1ccc(OC)cc1 (stereo not given)
inactive: 786-0 > 100 µM | CCRF-CEM 56.6 µM | EKVX > 100 µM | HL-60 68.2 µM | HT-29 33.8 µM | IGROV-1 > 100 µM | K562 94.8 µM | Malme-3M 66.4 µM | NCI-H23 39.7 µM | NCI-H460 > 100 µM | NCI-H522 23.6 µM | OVCAR-3 > 100 µM | OVCAR-8 > 100 µM | RPMI-8226 43.3 µM | SF-295 92.7 µM | SNB-75 > 100 µM | U-251 73.3 µM | UACC-257 37 µM | UACC-62 > 100 µM

COc1cccc(/C=C2\C(=O)N(C(=O)Cc3ccccc3)N=C2C)c1
inactive: 786-0 > 100 µM | CCRF-CEM > 100 µM | EKVX > 100 µM | HL-60 > 100 µM | HT-29 > 100 µM | K562 > 100 µM | Malme-3M > 100 µM | NCI-H23 > 100 µM | NCI-H460 > 10 µM | NCI-H522 > 100 µM | OVCAR-3 > 100 µM | OVCAR-8 > 100 µM | RPMI-8226 > 100 µM | SF-295 > 100 µM | SK-MEL-5 > 100 µM | SNB-75 > 100 µM | U-251 > 100 µM | UACC-257 > 100 µM
